{
  "source": "PubChem BioAssay AID1963966",
  "about": "(Molecular Pharmacology Branch, DTP, NCI, 2024);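 also: compound exposure lasted seven days before viability was read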;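 as to viability, T/C: percent of vehicle DMSO treated spheroid viability so 100% = untreated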",
  "test_system": "935938-334-R-J1-PDC spheroids with HUVEC/MSC, viability",
  "assay": "Anticancer human tumor 935938-334-R-J1-PDC patient-derived small intestine adenocarcinoma cell line growth inhibition [PI3K]",
  "settings": "for IC50: curve of first compound; for viability, T/C: stronger effect = lower value",
  "in_short": "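Spheroid viability read-out. Co-cultures contained the tumor line plus HUVEC and human MSCs. Each agent was paired with a PI3K inhibitor (inavolisib, alpelisib, duvelisib, copanlisib) across half-log dilutions starting at clinical Cmax, or at 10 microM when Cmax was unknown.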",
  "key": {"[1]": {"settings": "second compound 0.00316 µM, first compound 0.000316 µM"}, "[2]": {"settings": "second compound 0.00316 µM, first compound 0.001 µM"}, "[3]": {"settings": "second compound 0.00316 µM, first compound 0.00316 µM"}, "[4]": {"settings": "second compound 0.00316 µM, first compound 0.01 µM"}, "[5]": {"settings": "second compound 0.00316 µM, first compound 0.0316 µM"}, "[6]": {"settings": "second compound 0.00316 µM, first compound 0.1 µM"}, "[7]": {"settings": "second compound 0.01 µM, first compound 0.000316 µM"}, "[8]": {"settings": "second compound 0.01 µM, first compound 0.001 µM"}, "[9]": {"settings": "second compound 0.01 µM, first compound 0.00316 µM"}, "[10]": {"settings": "second compound 0.01 µM, first compound 0.01 µM"}, "[11]": {"settings": "second compound 0.01 µM, first compound 0.0316 µM"}, "[12]": {"settings": "second compound 0.01 µM, first compound 0.1 µM"}, "[13]": {"settings": "second compound 0.0316 µM, first compound 0.000316 µM"}, "[14]": {"settings": "second compound 0.0316 µM, first compound 0.001 µM"}, "[15]": {"settings": "second compound 0.0316 µM, first compound 0.00316 µM"}, "[16]": {"settings": "second compound 0.0316 µM, first compound 0.01 µM"}, "[17]": {"settings": "second compound 0.0316 µM, first compound 0.0316 µM"}, "[18]": {"settings": "second compound 0.0316 µM, first compound 0.1 µM"}, "[19]": {"settings": "second compound 0.1 µM, first compound 0.000316 µM"}, "[20]": {"settings": "second compound 0.1 µM, first compound 0.001 µM"}, "[21]": {"settings": "second compound 0.1 µM, first compound 0.00316 µM"}, "[22]": {"settings": "second compound 0.1 µM, first compound 0.01 µM"}, "[23]": {"settings": "second compound 0.1 µM, first compound 0.0316 µM"}, "[24]": {"settings": "second compound 0.1 µM, first compound 0.1 µM"}, "[25]": {"settings": "second compound 0.316 µM, first compound 0.000316 µM"}, "[26]": {"settings": "second compound 0.316 µM, first compound 0.001 µM"}, "[27]": {"settings": "second compound 0.316 µM, first compound 0.00316 µM"}, "[28]": {"settings": "second compound 0.316 µM, first compound 0.01 µM"}, "[29]": {"settings": "second compound 0.316 µM, first compound 0.0316 µM"}, "[30]": {"settings": "second compound 0.316 µM, first compound 0.1 µM"}, "[31]": {"settings": "second compound 1 µM, first compound 0.000316 µM"}, "[32]": {"settings": "second compound 1 µM, first compound 0.001 µM"}, "[33]": {"settings": "second compound 1 µM, first compound 0.00316 µM"}, "[34]": {"settings": "second compound 1 µM, first compound 0.01 µM"}, "[35]": {"settings": "second compound 1 µM, first compound 0.0316 µM"}, "[36]": {"settings": "second compound 1 µM, first compound 0.1 µM"}},
  "data": [
    {"smiles": "CC(=O)c1c(C)c2cnc(Nc3ccc(N4CCNCC4)cn3)nc2n(C2CCCC2)c1=O", "note": "+ COc1c(OCCCN2CCOCC2)ccc2c3n(c(=NC(=O)c4cnc(N)nc4)nc12)CCN3", "values": [
      {"measurement": "IC50", "setting": "second compound 0.00316 µM", "value": "> 100", "unit": "nM"},
      {"measurement": "IC50", "setting": "second compound 0.01 µM", "value": "> 100", "unit": "nM"},
      {"measurement": "IC50", "setting": "second compound 0.0316 µM", "value": "> 100", "unit": "nM"},
      {"measurement": "IC50", "setting": "second compound 0.1 µM", "value": 0.621, "unit": "nM"},
      {"measurement": "IC50", "setting": "second compound 0.316 µM", "value": "< 0.316", "unit": "nM"},
      {"measurement": "IC50", "setting": "second compound 1 µM", "value": "< 0.316", "unit": "nM"},
      {"measurement": "viability, T/C", "setting": "[1]", "value": 94.8, "unit": "%"},
      {"measurement": "viability, T/C", "setting": "[2]", "value": 98.7, "unit": "%"},
      {"measurement": "viability, T/C", "setting": "[3]", "value": 80.2, "unit": "%"},
      {"measurement": "viability, T/C", "setting": "[4]", "value": 113, "unit": "%"},
      {"measurement": "viability, T/C", "setting": "[5]", "value": 110, "unit": "%"},
      {"measurement": "viability, T/C", "setting": "[6]", "value": 57.4, "unit": "%"},
      {"measurement": "viability, T/C", "setting": "[7]", "value": 99.7, "unit": "%"},
      {"measurement": "viability, T/C", "setting": "[8]", "value": 90.8, "unit": "%"},
      {"measurement": "viability, T/C", "setting": "[9]", "value": 80.4, "unit": "%"},
      {"measurement": "viability, T/C", "setting": "[10]", "value": 90.1, "unit": "%"},
      {"measurement": "viability, T/C", "setting": "[11]", "value": 78.4, "unit": "%"},
      {"measurement": "viability, T/C", "setting": "[12]", "value": 56.3, "unit": "%"},
      {"measurement": "viability, T/C", "setting": "[13]", "value": 81.8, "unit": "%"},
      {"measurement": "viability, T/C", "setting": "[14]", "value": 74.7, "unit": "%"},
      {"measurement": "viability, T/C", "setting": "[15]", "value": 68.3, "unit": "%"},
      {"measurement": "viability, T/C", "setting": "[16]", "value": 63.2, "unit": "%"},
      {"measurement": "viability, T/C", "setting": "[17]", "value": 63.8, "unit": "%"},
      {"measurement": "viability, T/C", "setting": "[18]", "value": 48.6, "unit": "%"},
      {"measurement": "viability, T/C", "setting": "[19]", "value": 54.4, "unit": "%"},
      {"measurement": "viability, T/C", "setting": "[20]", "value": 48.6, "unit": "%"},
      {"measurement": "viability, T/C", "setting": "[21]", "value": 37.9, "unit": "%"},
      {"measurement": "viability, T/C", "setting": "[22]", "value": 42, "unit": "%"},
      {"measurement": "viability, T/C", "setting": "[23]", "value": 39.7, "unit": "%"},
      {"measurement": "viability, T/C", "setting": "[24]", "value": 35.6, "unit": "%"},
      {"measurement": "viability, T/C", "setting": "[25]", "value": 39.9, "unit": "%"},
      {"measurement": "viability, T/C", "setting": "[26]", "value": 32.6, "unit": "%"},
      {"measurement": "viability, T/C", "setting": "[27]", "value": 29.2, "unit": "%"},
      {"measurement": "viability, T/C", "setting": "[28]", "value": 33.3, "unit": "%"},
      {"measurement": "viability, T/C", "setting": "[29]", "value": 27.9, "unit": "%"},
      {"measurement": "viability, T/C", "setting": "[30]", "value": 35.3, "unit": "%"},
      {"measurement": "viability, T/C", "setting": "[31]", "value": 38.4, "unit": "%"},
      {"measurement": "viability, T/C", "setting": "[32]", "value": 35.2, "unit": "%"},
      {"measurement": "viability, T/C", "setting": "[33]", "value": 35.3, "unit": "%"},
      {"measurement": "viability, T/C", "setting": "[34]", "value": 39.6, "unit": "%"},
      {"measurement": "viability, T/C", "setting": "[35]", "value": 30.2, "unit": "%"},
      {"measurement": "viability, T/C", "setting": "[36]", "value": 31, "unit": "%"}
    ]},
    {"smiles": "CC(C)n1nc(-c2ccc3oc(N)nc3c2)c2c(N)ncnc21", "note": "+ COc1c(OCCCN2CCOCC2)ccc2c3n(c(=NC(=O)c4cnc(N)nc4)nc12)CCN3", "values": [
      {"measurement": "IC50", "setting": "second compound 0.00316 µM", "value": "> 100", "unit": "nM"},
      {"measurement": "IC50", "setting": "second compound 0.01 µM", "value": 81.8, "unit": "nM"},
      {"measurement": "IC50", "setting": "second compound 0.0316 µM", "value": 26.6, "unit": "nM"},
      {"measurement": "IC50", "setting": "second compound 0.1 µM", "value": "< 0.316", "unit": "nM"},
      {"measurement": "IC50", "setting": "second compound 0.316 µM", "value": "< 0.316", "unit": "nM"},
      {"measurement": "IC50", "setting": "second compound 1 µM", "value": "< 0.316", "unit": "nM"},
      {"measurement": "viability, T/C", "setting": "[1]", "value": 86.9, "unit": "%"},
      {"measurement": "viability, T/C", "setting": "[2]", "value": 110, "unit": "%"},
      {"measurement": "viability, T/C", "setting": "[3]", "value": 106, "unit": "%"},
      {"measurement": "viability, T/C", "setting": "[4]", "value": 99.9, "unit": "%"},
      {"measurement": "viability, T/C", "setting": "[5]", "value": 85.3, "unit": "%"},
      {"measurement": "viability, T/C", "setting": "[6]", "value": 54.8, "unit": "%"},
      {"measurement": "viability, T/C", "setting": "[7]", "value": 94.5, "unit": "%"},
      {"measurement": "viability, T/C", "setting": "[8]", "value": 83.2, "unit": "%"},
      {"measurement": "viability, T/C", "setting": "[9]", "value": 92.6, "unit": "%"},
      {"measurement": "viability, T/C", "setting": "[10]", "value": 89.5, "unit": "%"},
      {"measurement": "viability, T/C", "setting": "[11]", "value": 79.6, "unit": "%"},
      {"measurement": "viability, T/C", "setting": "[12]", "value": 43.4, "unit": "%"},
      {"measurement": "viability, T/C", "setting": "[13]", "value": 83.9, "unit": "%"},
      {"measurement": "viability, T/C", "setting": "[14]", "value": 107, "unit": "%"},
      {"measurement": "viability, T/C", "setting": "[15]", "value": 92.7, "unit": "%"},
      {"measurement": "viability, T/C", "setting": "[16]", "value": 68, "unit": "%"},
      {"measurement": "viability, T/C", "setting": "[17]", "value": 50.2, "unit": "%"},
      {"measurement": "viability, T/C", "setting": "[18]", "value": 35.1, "unit": "%"},
      {"measurement": "viability, T/C", "setting": "[19]", "value": 45.1, "unit": "%"},
      {"measurement": "viability, T/C", "setting": "[20]", "value": 59.4, "unit": "%"},
      {"measurement": "viability, T/C", "setting": "[21]", "value": 39.2, "unit": "%"},
      {"measurement": "viability, T/C", "setting": "[22]", "value": 48.2, "unit": "%"},
      {"measurement": "viability, T/C", "setting": "[23]", "value": 36.9, "unit": "%"},
      {"measurement": "viability, T/C", "setting": "[24]", "value": 34.8, "unit": "%"},
      {"measurement": "viability, T/C", "setting": "[25]", "value": 36.3, "unit": "%"},
      {"measurement": "viability, T/C", "setting": "[26]", "value": 38.9, "unit": "%"},
      {"measurement": "viability, T/C", "setting": "[27]", "value": 34.5, "unit": "%"},
      {"measurement": "viability, T/C", "setting": "[28]", "value": 31.1, "unit": "%"},
      {"measurement": "viability, T/C", "setting": "[29]", "value": 42.5, "unit": "%"},
      {"measurement": "viability, T/C", "setting": "[30]", "value": 31.1, "unit": "%"},
      {"measurement": "viability, T/C", "setting": "[31]", "value": 42.6, "unit": "%"},
      {"measurement": "viability, T/C", "setting": "[32]", "value": 37.2, "unit": "%"},
      {"measurement": "viability, T/C", "setting": "[33]", "value": 37.1, "unit": "%"},
      {"measurement": "viability, T/C", "setting": "[34]", "value": 32.5, "unit": "%"},
      {"measurement": "viability, T/C", "setting": "[35]", "value": 26.5, "unit": "%"},
      {"measurement": "viability, T/C", "setting": "[36]", "value": 33.4, "unit": "%"}
    ]}
  ]
}
